Data reported in ChEMBL document CHEMBL1140645, “Synthesis and in vitro activity of 2-thiazolylhydrazone derivatives compared with the activity of clotrimazole against clinical isolates of Candida spp” (Bioorg Med Chem Lett, 2007).
≈ marks a conversion by molar mass, not a printed value.

Test system: Pichia kudriavzevii
Assay: Antifungal activity against Candida krusei after 24 hrs by broth microdilution method
Type: functional
Details: not given

SMILES	MIC
Cc1ccc(-c2csc(N/N=C3\CCCC(C)C3)n2)cc1 (configuration not stated)	0.5 µg/mL (≈ 1.67 µM)
CC1CCC/C(=N\Nc2nc(-c3ccc(C#N)cc3)cs2)C1 (configuration not stated)	4 µg/mL (≈ 12.9 µM)
c1ccc(-c2csc(NN=C3CCCCCC3)n2)cc1	8 µg/mL (≈ 28 µM)
CC1CCC/C(=N\Nc2nc(-c3ccc(Cl)cc3)cs2)C1 (configuration not stated)	4 µg/mL (≈ 12.5 µM)
COc1ccc(-c2csc(N/N=C3\CCCC(C)C3)n2)cc1 (configuration not stated)	2 µg/mL (≈ 6.34 µM)
CC1CCC/C(=N\Nc2nc(-c3ccc(F)cc3)cs2)C1 (configuration not stated)	4 µg/mL (≈ 13.2 µM)
c1ccc(-c2ccc(-c3csc(NN=C4CCCC4)n3)cc2)cc1	> 128 µg/mL
N#Cc1ccc(-c2csc(NN=C3CCCC3)n2)cc1	32 µg/mL (≈ 113 µM)
O=[N+]([O-])c1cccc(-c2csc(NN=C3CCCC3)n2)c1	> 128 µg/mL

Test system: Candida tropicalis
Assay: Antifungal activity against Candida tropicalis after 24 hrs by broth microdilution method
Type: functional
Details: not given

SMILES	MIC
Cc1ccc(-c2csc(N/N=C3\CCCC(C)C3)n2)cc1 (configuration not stated)	0.5 µg/mL (≈ 1.67 µM)
CC1CCC/C(=N\Nc2nc(-c3ccc(C#N)cc3)cs2)C1 (configuration not stated)	2 µg/mL (≈ 6.44 µM)
c1ccc(-c2csc(NN=C3CCCCCC3)n2)cc1	8 µg/mL (≈ 28 µM)
CC1CCC/C(=N\Nc2nc(-c3ccc(Cl)cc3)cs2)C1 (configuration not stated)	2 µg/mL (≈ 6.25 µM)
COc1ccc(-c2csc(N/N=C3\CCCC(C)C3)n2)cc1 (configuration not stated)	2 µg/mL (≈ 6.34 µM)
CC1CCC/C(=N\Nc2nc(-c3ccc(F)cc3)cs2)C1 (configuration not stated)	4 µg/mL (≈ 13.2 µM)
c1ccc(-c2ccc(-c3csc(NN=C4CCCC4)n3)cc2)cc1	64 µg/mL (≈ 192 µM)
N#Cc1ccc(-c2csc(NN=C3CCCC3)n2)cc1	32 µg/mL (≈ 113 µM)
O=[N+]([O-])c1cccc(-c2csc(NN=C3CCCC3)n2)c1	64 µg/mL (≈ 212 µM)

Test system: not listed separately
Assay: Cytotoxicity against human EAhy926 cells assessed as cell survival fraction at 0.5 ug/ml after 24 hrs by trypan blue exclusion test
Details: ea.hy 926, at 0.5 µg/mL

SMILES	viability at 24 h, 0.5 ug/ml
Cc1ccc(-c2csc(N/N=C3\CCCC(C)C3)n2)cc1 (configuration not stated)	83.3%
CC1CCC/C(=N\Nc2nc(-c3ccc(C#N)cc3)cs2)C1 (configuration not stated)	68.7%
c1ccc(-c2csc(NN=C3CCCCCC3)n2)cc1	87.5%
CC1CCC/C(=N\Nc2nc(-c3ccc(Cl)cc3)cs2)C1 (configuration not stated)	70%
COc1ccc(-c2csc(N/N=C3\CCCC(C)C3)n2)cc1 (configuration not stated)	80%
CC1CCC/C(=N\Nc2nc(-c3ccc(F)cc3)cs2)C1 (configuration not stated)	76.9%
N#Cc1ccc(-c2csc(NN=C3CCCC3)n2)cc1	84.7%

Test system: Candida parapsilosis
Assay: Antifungal activity against Candida parapsilosis after 24 hrs by broth microdilution method
Type: functional
Details: Lodderomyces parapsilosis

SMILES	MIC
Cc1ccc(-c2csc(N/N=C3\CCCC(C)C3)n2)cc1 (configuration not stated)	0.5 µg/mL (≈ 1.67 µM)
CC1CCC/C(=N\Nc2nc(-c3ccc(C#N)cc3)cs2)C1 (configuration not stated)	0.5 µg/mL (≈ 1.61 µM)
c1ccc(-c2csc(NN=C3CCCCCC3)n2)cc1	8 µg/mL (≈ 28 µM)
CC1CCC/C(=N\Nc2nc(-c3ccc(Cl)cc3)cs2)C1 (configuration not stated)	1 µg/mL (≈ 3.13 µM)
COc1ccc(-c2csc(N/N=C3\CCCC(C)C3)n2)cc1 (configuration not stated)	1 µg/mL (≈ 3.17 µM)
CC1CCC/C(=N\Nc2nc(-c3ccc(F)cc3)cs2)C1 (configuration not stated)	1 µg/mL (≈ 3.3 µM)
c1ccc(-c2ccc(-c3csc(NN=C4CCCC4)n3)cc2)cc1	> 128 µg/mL
N#Cc1ccc(-c2csc(NN=C3CCCC3)n2)cc1	128 µg/mL (≈ 453 µM)
O=[N+]([O-])c1cccc(-c2csc(NN=C3CCCC3)n2)c1	> 128 µg/mL

Test system: Candida albicans
Assay: Antifungal activity against Candida albicans after 24 hrs by broth microdilution method
Type: functional
Details: not given

SMILES	MIC
Cc1ccc(-c2csc(N/N=C3\CCCC(C)C3)n2)cc1 (configuration not stated)	0.5 µg/mL (≈ 1.67 µM)
CC1CCC/C(=N\Nc2nc(-c3ccc(C#N)cc3)cs2)C1 (configuration not stated)	0.5 µg/mL (≈ 1.61 µM)
c1ccc(-c2csc(NN=C3CCCCCC3)n2)cc1	0.5 µg/mL (≈ 1.75 µM)
CC1CCC/C(=N\Nc2nc(-c3ccc(Cl)cc3)cs2)C1 (configuration not stated)	0.5 µg/mL (≈ 1.56 µM)
COc1ccc(-c2csc(N/N=C3\CCCC(C)C3)n2)cc1 (configuration not stated)	0.5 µg/mL (≈ 1.59 µM)
CC1CCC/C(=N\Nc2nc(-c3ccc(F)cc3)cs2)C1 (configuration not stated)	0.5 µg/mL (≈ 1.65 µM)
c1ccc(-c2ccc(-c3csc(NN=C4CCCC4)n3)cc2)cc1	16 µg/mL (≈ 48 µM)
N#Cc1ccc(-c2csc(NN=C3CCCC3)n2)cc1	2 µg/mL (≈ 7.08 µM)
O=[N+]([O-])c1cccc(-c2csc(NN=C3CCCC3)n2)c1	1 µg/mL (≈ 3.31 µM)

Test system: [Candida] sake
Assay: Antifungal activity against Candida sake after 24 hrs by broth microdilution method
Type: functional
Details: Fermentozyma sake

SMILES	MIC
Cc1ccc(-c2csc(N/N=C3\CCCC(C)C3)n2)cc1 (configuration not stated)	2 µg/mL (≈ 6.68 µM)
CC1CCC/C(=N\Nc2nc(-c3ccc(C#N)cc3)cs2)C1 (configuration not stated)	4 µg/mL (≈ 12.9 µM)
c1ccc(-c2csc(NN=C3CCCCCC3)n2)cc1	16 µg/mL (≈ 56.1 µM)
CC1CCC/C(=N\Nc2nc(-c3ccc(Cl)cc3)cs2)C1 (configuration not stated)	2 µg/mL (≈ 6.25 µM)
COc1ccc(-c2csc(N/N=C3\CCCC(C)C3)n2)cc1 (configuration not stated)	8 µg/mL (≈ 25.4 µM)
CC1CCC/C(=N\Nc2nc(-c3ccc(F)cc3)cs2)C1 (configuration not stated)	8 µg/mL (≈ 26.4 µM)
c1ccc(-c2ccc(-c3csc(NN=C4CCCC4)n3)cc2)cc1	32 µg/mL (≈ 96 µM)
N#Cc1ccc(-c2csc(NN=C3CCCC3)n2)cc1	32 µg/mL (≈ 113 µM)
O=[N+]([O-])c1cccc(-c2csc(NN=C3CCCC3)n2)c1	16 µg/mL (≈ 52.9 µM)

Test system: Nakaseomyces glabratus
Assay: Antifungal activity against Candida glabrata after 24 hrs by broth microdilution method
Type: functional
Details: not given

SMILES	MIC
Cc1ccc(-c2csc(N/N=C3\CCCC(C)C3)n2)cc1 (configuration not stated)	32 µg/mL (≈ 107 µM)
CC1CCC/C(=N\Nc2nc(-c3ccc(C#N)cc3)cs2)C1 (configuration not stated)	> 128 µg/mL
c1ccc(-c2csc(NN=C3CCCCCC3)n2)cc1	> 128 µg/mL
CC1CCC/C(=N\Nc2nc(-c3ccc(Cl)cc3)cs2)C1 (configuration not stated)	> 128 µg/mL
COc1ccc(-c2csc(N/N=C3\CCCC(C)C3)n2)cc1 (configuration not stated)	> 128 µg/mL
CC1CCC/C(=N\Nc2nc(-c3ccc(F)cc3)cs2)C1 (configuration not stated)	> 128 µg/mL
c1ccc(-c2ccc(-c3csc(NN=C4CCCC4)n3)cc2)cc1	> 128 µg/mL
N#Cc1ccc(-c2csc(NN=C3CCCC3)n2)cc1	0.5 µg/mL (≈ 1.77 µM)
O=[N+]([O-])c1cccc(-c2csc(NN=C3CCCC3)n2)c1	0.5 µg/mL (≈ 1.65 µM)

Test system: not listed separately
Assay: Cytotoxicity against human EAhy926 cells assessed as cell survival fraction at 0.05 ug/ml after 24 hrs by trypan blue exclusion test
Details: ea.hy 926, at 0.05 µg/mL

SMILES	viability at 24 h, 0.05 ug/ml
Cc1ccc(-c2csc(N/N=C3\CCCC(C)C3)n2)cc1 (configuration not stated)	84%
CC1CCC/C(=N\Nc2nc(-c3ccc(C#N)cc3)cs2)C1 (configuration not stated)	68.8%
c1ccc(-c2csc(NN=C3CCCCCC3)n2)cc1	94.7%
CC1CCC/C(=N\Nc2nc(-c3ccc(Cl)cc3)cs2)C1 (configuration not stated)	73%
COc1ccc(-c2csc(N/N=C3\CCCC(C)C3)n2)cc1 (configuration not stated)	83.3%
CC1CCC/C(=N\Nc2nc(-c3ccc(F)cc3)cs2)C1 (configuration not stated)	80%
N#Cc1ccc(-c2csc(NN=C3CCCC3)n2)cc1	88.9%

Test system: not listed separately
Assay: Cytotoxicity against human EAhy926 cells assessed as cell survival fraction at 5 ug/ml after 24 hrs by trypan blue exclusion test
Details: ea.hy 926, at 5 µg/mL

SMILES	viability at 24 h, 5 ug/ml
Cc1ccc(-c2csc(N/N=C3\CCCC(C)C3)n2)cc1 (configuration not stated)	72.7%
CC1CCC/C(=N\Nc2nc(-c3ccc(C#N)cc3)cs2)C1 (configuration not stated)	50%
c1ccc(-c2csc(NN=C3CCCCCC3)n2)cc1	80%
CC1CCC/C(=N\Nc2nc(-c3ccc(Cl)cc3)cs2)C1 (configuration not stated)	50%
COc1ccc(-c2csc(N/N=C3\CCCC(C)C3)n2)cc1 (configuration not stated)	72.7%
CC1CCC/C(=N\Nc2nc(-c3ccc(F)cc3)cs2)C1 (configuration not stated)	60%
N#Cc1ccc(-c2csc(NN=C3CCCC3)n2)cc1	81%

Test system: not listed separately
Assay: Cytotoxicity against human EAhy926 cells assessed as cell survival fraction at 50 ug/ml after 24 hrs by trypan blue exclusion test
Details: ea.hy 926, at 50 µg/mL

SMILES	viability at 24 h, 50 ug/ml
Cc1ccc(-c2csc(N/N=C3\CCCC(C)C3)n2)cc1 (configuration not stated)	38.5%
CC1CCC/C(=N\Nc2nc(-c3ccc(C#N)cc3)cs2)C1 (configuration not stated)	25%
c1ccc(-c2csc(NN=C3CCCCCC3)n2)cc1	54.5%
CC1CCC/C(=N\Nc2nc(-c3ccc(Cl)cc3)cs2)C1 (configuration not stated)	28.6%
COc1ccc(-c2csc(N/N=C3\CCCC(C)C3)n2)cc1 (configuration not stated)	54.5%
CC1CCC/C(=N\Nc2nc(-c3ccc(F)cc3)cs2)C1 (configuration not stated)	52.9%
N#Cc1ccc(-c2csc(NN=C3CCCC3)n2)cc1	76%
